Results reported in ChEMBL document CHEMBL5528050, “Discovery of a Novel Series of Homo sapiens Caseinolytic Protease P Agonists for Colorectal Adenocarcinoma Treatment via ATF3-Dependent Integrated Stress Response” (J Med Chem, 2024).
Activity calls are given as the source filed them. The rule behind the calls is not given here.

Key:
HCT-116 [1] = test: Induction of ROS generation in human HCT-116 cells assessed as increase in intracellular ROS level measured after 48 hrs DCFH-DA staining based analysis; format: functional, cell-based
[2] = Toxicity in BALB/c nude mouse assessed as effect on lung at 1.25 to 5 mg/kg, iv administered twice weekly and measured after 21 days by H and E staining based analysis; format: organism-based; conditions: in vivo, 504 h, dose 1.25-5 mg/kg, time 21 day
[3] = Antiproliferative activity against human HCoEpiC cells assessed as inhibition of cell growth measured after 72 hrs by CCK-8 method; format: toxicity, cell-based
DLD-1 = test: cells; conditions: Homo sapiens, DLD-1, 72 h
Description: Antiproliferative activity against human DLD-1 cells assessed as inhibition of cell growth measured after 72 hrs by CCK-8 method

[4] = Metabolic stability in human liver microsomes assessed as intrinsic clearance at 1 uM measured upto 60 mins in presence of NADPH regenerating system by LC-MS/MS analysis; format: ADME, Microsome; conditions: read-out: CLH
[5] = Cmax in Sprague-Dawley rat at 10 mg/kg, po by LC-MS/MS analysis; format: ADME, organism-based; conditions: in vivo
[6] = Toxicity in BALB/c nude mouse assessed as effect on kidney at 1.25 to 5 mg/kg, iv administered twice weekly and measured after 21 days by H and E staining based analysis; format: organism-based; conditions: in vivo, 504 h, dose 1.25-5 mg/kg, time 21 day
[7] = Toxicity in BALB/c nude mouse assessed as effect on liver at 1.25 to 5 mg/kg, iv administered twice weekly and measured after 21 days by H and E staining based analysis; format: organism-based; conditions: in vivo, 504 h, dose 1.25-5 mg/kg, time 21 day
HCT-116 [8] = test: cells; conditions: Homo sapiens, HCT-116, 72 h
Description: Antiproliferative activity against human HCT-116 cells assessed as inhibition of cell growth measured after 72 hrs by CCK-8 method

HCT-116 [9] = test: Antitumor activity against human HCT-116 cells xenografted in BALB/c nude mouse model assessed as reduction in tumor weight at high dose administered as iv twice weekly and measured upto 21 days; format: functional; conditions: time <= 21 day
HCT-116 [10] = test: Induction of apoptosis in human HCT-116 cells assessed as apoptotic rate at medium dose measured after 48 hrs by annexin V-FITC/7-AAD based flow cytometry analysis relative to control; format: functional
[11] = Antiproliferative activity against rat H9c2 cells assessed as inhibition of cell growth measured after 72 hrs by CCK-8 method; format: toxicity, cell-based
HCT-116 [12] = test: Induction of cell cycle arrest in human HCT-116 cells assessed as effect on number of cells at G1 phase at 0.5 to 2 uM measured after 48 hrs by PI staining based flow cytometry analysis; format: functional; conditions: dose 0.5-2 µM
[13] = Oral bioavailability in Sprague-Dawley rat at 10 mg/kg by LC-MS/MS analysis; format: ADME, organism-based; conditions: in vivo
[14] = Acute toxicity in BALB/c mouse assessed as effect on body weight at middle to high dose iv measured upto 21 days relative to control; format: organism-based; conditions: in vivo, 504 h, time < 21 day
[15] = AUC (0 to 12hrs) in Sprague-Dawley rat at 10 mg/kg, iv by LC-MS/MS analysis; format: ADME, organism-based; conditions: in vivo
HCT-116 [16] = test: Antitumor activity against human HCT-116 cells xenografted in BALB/c nude mouse model assessed as reduction in SDHB expression at upto 5 mg/kg, iv administered twice weekly by Western blot analysis; format: functional, organism-based
HCT-116 [17] = test: Upregulation of ATF3 mRNA expression in human HCT-116 cells by RT-PCR analysis; format: functional, cell-based
HCT-116 [18] = test: Upregulation of DDIT3 expression in human HCT-116 cells measured after 48 hrs by Western blot analysis; format: functional, cell-based
HCT-116 [19] = test: Induction of cell cycle arrest in human HCT-116 cells assessed as increase in number of cells at G2 phase at 0.5 uM measured after 48 hrs by PI staining based flow cytometry analysis; format: functional
HCT-116 [20] = test: Upregulation of ATF3 expression in human HCT-116 cells measured after 48 hrs by Western blot analysis; format: functional, cell-based
HCT-116 [21] = test: Upregulation of JUN expression in human HCT-116 cells measured after 48 hrs by Western blot analysis; format: functional, cell-based
[22] = Half life in Sprague-Dawley rat at 10 mg/kg, po by LC-MS/MS analysis; format: ADME, organism-based; conditions: in vivo
HCT-116 [23] = test: Induction of apoptosis in human HCT-116 cells assessed as downregulation of bcl-2 expression at 0.5 to 2 uM measured after 48 hrs by Western blot analysis; format: functional, cell-based; conditions: dose 0.5-2 µM
Cell membrane = test: Induction of mitochondrial membrane potential loss in human HCT-116 cells assessed as increase in green fluorescence at high dose measured after 48 hrs by JC-1 staining based microscopy analysis; format: cell membranes
[24] = Acute toxicity in BALB/c mouse assessed as reduction in body weight at low dose iv measured upto 21 days relative to control; format: organism-based; design: scale not given: the % may be the effect or the level left; conditions: in vivo, 504 h, time < 21 day
[25] = molecular target: T1, ATP-dependent Clp protease proteolytic subunit (Staphylococcus aureus (strain NCTC 8325)) (UniProt Q2G036); test: Agonist activity at Staphylococcus aureus ClpP using Suc-LY-AMC as substrate at 10 to 100 uM measured every 5 mins for 1 hr by fluorescence based analysis; conditions: dose 10-100 µM
T1 sequence (whole entry): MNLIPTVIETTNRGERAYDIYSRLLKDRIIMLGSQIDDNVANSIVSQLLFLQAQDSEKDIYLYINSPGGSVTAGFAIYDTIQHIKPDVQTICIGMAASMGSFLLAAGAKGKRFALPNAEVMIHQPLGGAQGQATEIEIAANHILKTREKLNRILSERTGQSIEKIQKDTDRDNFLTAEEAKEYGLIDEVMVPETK

HCT-116 [26] = test: Upregulation of DDIT4 expression in human HCT-116 cells measured after 48 hrs by Western blot analysis; format: functional, cell-based
[27] = Tmax in Sprague-Dawley rat at 10 mg/kg, po by LC-MS/MS analysis; format: ADME, organism-based; conditions: in vivo
[28] = Antiproliferative activity against human L02 cells assessed as inhibition of cell growth measured after 72 hrs by CCK-8 method; format: toxicity, cell-based
[29] = Half life in Sprague-Dawley rat at 10 mg/kg, iv by LC-MS/MS analysis; format: ADME, organism-based; conditions: in vivo
HCT-116 [30] = test: Antitumor activity against human HCT-116 cells xenografted in BALB/c nude mouse model assessed as reduction in tumor weight at middle dose administered as iv twice weekly and measured upto 21 days; format: functional; conditions: time <= 21 day
[31] = Clearance in Sprague-Dawley rat at 10 mg/kg, iv by LC-MS/MS analysis; format: ADME, organism-based; conditions: in vivo
Staphylococcus aureus = test: Antibacterial activity against Staphylococcus aureus ATCC25923 assessed as reduction in bacterial growth; format: functional
[32] = MRT (0 to 12hrs) in Sprague-Dawley rat at 10 mg/kg, po by LC-MS/MS analysis; format: ADME, organism-based; conditions: in vivo
HCT-116 [33] = test: Upregulation of CHAC1 expression in human HCT-116 cells measured after 48 hrs by Western blot analysis; format: functional, cell-based
[34] = Cmax in Sprague-Dawley rat at 10 mg/kg, iv by LC-MS/MS analysis; format: ADME, organism-based; conditions: in vivo
[35] = Metabolic stability in rat liver microsomes assessed as half life at 1 uM measured upto 60 mins in presence of NADPH regenerating system by LC-MS/MS analysis; format: ADME, Microsome
[36] = molecular target: ATP-dependent Clp protease proteolytic subunit (Escherichia coli (strain K12)) (UniProt P0A6G7); test: Agonist activity at Escherichia coli ClpP using Suc-LY-AMC as substrate at 10 to 100 uM measured every 5 mins for 1 hr by fluorescence based analysis; conditions: dose 10-100 µM
Chain of ATP-dependent Clp protease proteolytic subunit (Escherichia coli (strain K12)) (P0A6G7 whole entry): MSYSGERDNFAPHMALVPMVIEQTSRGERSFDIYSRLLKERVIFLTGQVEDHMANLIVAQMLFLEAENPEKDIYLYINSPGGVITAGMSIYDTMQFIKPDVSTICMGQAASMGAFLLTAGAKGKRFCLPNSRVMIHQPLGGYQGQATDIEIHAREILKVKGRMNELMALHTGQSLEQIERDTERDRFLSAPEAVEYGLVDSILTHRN

## N#Cc1cccc(CN2CCC=C(C(=O)NCc3ccc(C(F)(F)F)cc3)C2)c1
HCT-116 [1]
  Activity: Active
[2]
  Activity: Non-Toxic
[3]
  IC50 at 72 h: 75.2 µM
DLD-1
  IC50: 3.1 µM
[4]
  CLint scaled at 1 µM: 206 mL/min/kg
[5]
  Cmax: 137 ng/mL
[6]
  Activity: Non-Toxic
[7]
  Activity: Non-Toxic
HCT-116 [8]
  IC50: 1 µM
HCT-116 [9]
  Activity: 300 mg
HCT-116 [10]
  Activity: 46%
[11]
  IC50 at 72 h: 60.6 µM
HCT-116 [12]
  Activity: inactive
[13]
  bioavailability: 54.2%
[14]
  Activity: Non-Toxic
[15]
  AUC: 1433.6 ng·h/mL
HCT-116 [16]
  Activity: Active
HCT-116 [17]
  Activity: Active
HCT-116 [18]
  Activity: Active
HCT-116 [19]
  Activity: 20%
HCT-116 [20]
  Activity: Active
HCT-116 [21]
  Activity: Active
[22]
  half-life: 4.7 h
HCT-116 [23]
  Activity: Active
Cell membrane
  Activity: Active
[24]
  Activity: 10%
[25]
  Activity: inactive
HCT-116 [26]
  Activity: Active
[27]
  Tmax: 5.4 h
[28]
  IC50 at 72 h: 64.1 µM
[29]
  half-life: 4.8 h
HCT-116 [30]
  Activity: 250 mg
[31]
  CL: 2.172 mL/min/kg
Staphylococcus aureus
  MIC: > 128 µg/mL
[32]
  MRT last: 6.7 h
HCT-116 [33]
  Activity: Active
[34]
  Cmax: 966 ng/mL
[35]
  half-life at 1 µM: 0.3 h
[36]
  Activity: inactive
